According to US11826430B2, “Anti-cancer nuclear hormone receptor-targeting compounds” (Nuvation Bio Inc., priority 2019, dated 2023):

How the values were obtained:
[1] = molecular target: Human recombinant PARP2 (Homo sapiens (Human), UniProt Q9UGN5); assay: RBC HotSpot PARP2 radioisotope-based filter binding assay; conditions: read-out: PARP2 IC50; 2.5 nM PARP2, histone H3, 10 μM 32P-NAD+
Method: (§3) RBC HotSpot Poly(ADP-ribose) Polymerases 1 (PARP1) and Poly(ADP-ribose) Polymerases 2 (PARP2) Assays: The assay was conducted at Reaction Biology Corporation (RBC; Malvern, PA). The assay principle is radioisotope-based filter binding assay where incorporation of radioisotope-labeled NAD^+ into the substrate captured on filter is detected after washout free NAD^+. Data were analyzed using Excel and GraphPad Prism software for IC50 curve fits. Each assay was conducted with PJ34 as a positive control. PARP1 assay: Human recombinant PARP1 at a final concentration of 2.5 nM was combined with histone H4 (20 μM) and test articles at various concentrations in reaction buffer (50 mM Tris-HCL, pH 8.0, 50 mM NaCl, 10 mM MgCl2, 1 mM DTT, 1% DMSO, and 20 μg/mL activated DNA). The solution was inoculated for 20 min at room temperature and the reaction initiated by adding [adenylate-^32P]-Nicotinamide Adenine Dinucleotide, ^32P-NAD^+ at a final concentration of 10 μM. After incubation for 2 hrs at room temperature, the reaction mixture was filtered and washed with 0.75% phosphoric acid for radioactivity detection. • ii. PARP2 assay: Human recombinant PARP2 at a final concentration of 2.5 nM was combined with histone H3 (20 μM) and test articles at various concentrations in reaction buffer (50 mM Tris-HCL, pH 8.0, 50 mM NaCl, 10 mM MgCl2, 1 mM DTT, 1% DMSO, and 20 μg/mL activated DNA). The solution was inoculated for 20 min at room temperature and the reaction was initiated by adding [adenylate-^32P]-Nicotinamide Adenine Dinucleotide, ^32P-NAD^+ at a final concentration of 10 μM. After incubation for 2 hrs at room temperature, the reaction mixture was filtered and washed with 0.75% phosphoric acid for radioactivity detection. b. AR binding assay: AR in LNCaP cytosol was used for determining the binding affinity of test articles and the reference compound—progesterone (Sigma, Cat: E2785, St. Louis, MO). IC50s were determined using 8 concentrations/compound. Cytosol was plated at 200 μg/well (100 μL) into a 96-well conical polypropylene plate (Agilent, Cat: 5042-1385, Santa Clara, CA) and mixed with 3 μL of test compound. After adding 100 μL of ^3H-methyltrienolone (PerkinElmer, Cat: NET590250UC, San Jose, CA), the plate was sealed and shaken at 300 rpm at 4° C. for 24 hours. Post incubation, 100 μL of radioligand adsorption buffer containing 10 mM Tris-HCl, pH 7.4; 1.5 mM EDTA; 1 mM DTT; 0.25% charcoal; 0.0025% dextran was added to individual well. Plate was shaken for 15 min at 4° C. followed by centrifugation at 3000 rpm for 30 min at 4° C. 150 μL of supernatant was transferred into scint-tube (PerkinElmer, Cat: 6000192) and mixed with 2 mL of Ultima Gold Cocktail (PerkinElmer, Cat: 6013329). Radioactivity was counted using a TriCarb 2910 TR scintillation counter (PerkinElmer). Inhibition of the radioactivity by test articles were calculated using the equation below: % Inhibition=(1−(Assay well-Average_LC)/(Average_HC-Average_LC))×100%. IC50 values were calculated and graphed using the model “log(inhibitor) vs. response—Variable slope” included in GraphPad Prism 5 (San Diego, CA). […] Ki=IC50/(1+[L]/Kd) c.

[2] = molecular target: Human recombinant PARP1 (Homo sapiens (Human), UniProt P09874); assay: RBC HotSpot PARP1 radioisotope-based filter binding assay; conditions: read-out: PARP1 IC50; 2.5 nM PARP1, histone H4, 10 μM 32P-NAD+
Method: as §3

[3] = molecular target: ER Alpha-LBD (GST) (Homo sapiens (Human), UniProt P03372); assay: LanthaScreen TR-FRET ER Alpha Competitive Binding Assay; conditions: Fluormone ES2 Green tracer displacement; for IC50: read-out: ERα IC50
Method: e. Additional cell proliferation assays: Other cancer cell lines are tested in a cell proliferation assay. For example, LnCaP, PC-3, MCF-7, HCC1428, BT474, HCT-116, SK-OV-3 or OVCAR3 cancer cells are tested. Cells are cultured in medium recommended by the supplier (e.g., ATCC or JCRB Cell Bank), at 37° C. in a 5% CO2 environment. For the proliferation assay, cells are plated in the growth medium in 96 well plates. Seeding density is adjusted according to the cell type. 24 hr later, cells are treated, in triplicate or quadruplicate, with test articles prepared in a range of concentrations by series dilution of DMSO stock solutions in growth medium, and typically incubated for three to seven days, with test article-containing medium replaced after three or four days. The number of viable cells is measured using CellTiter Glo assay (CTG, Promega, Madison, WI) or similar. Cell viability data are plotted using GraphPad Prism (GraphPad Software, Inc., San Diego, CA). In addition, a nonlinear regression model with a sigmoidal dose response and variable slope within GraphPad Prism is used to calculate the IC50 value of individual test articles. Similarly, HEK-293 and HeLa calls can also be tested by methods known in the art. f. Nuclear translocation: LNCaP cells are plated on coverslips in 24 well plates in growth medium. Twenty-four hours after plating, medium is changed to RPMI+1% csFBS and the cells are maintained in this medium for two days. Medium is replaced again and the cells are treated. Cells are fixed 4 hours after treatment and the AR immunostained using AR N20 antibody (Santa Cruz Biotechnology, Santa Cruz, CA). Nucleus is stained with DAPI. Cells are imaged with a confocal microscope. g. ER binding assay: ERα binding was assessed by the LanthaScreen® TR-FRET ER Alpha Competitive Binding Assay at Thermo Fisher. In this assay, a terbium-labeled anti-GST antibody was used to indirectly label GST-tagged ER Alpha-ligand binding domain (LBD) by binding to its GST tag. Competitive binding to the ER Alpha-LBD (GST) was detected by a test compound's ability to displace a fluorescent ligand (Fluormone™ ES2 Green tracer) from the ER Alpha-LBD (GST), which results in a loss of FRET signal between the Tb-anti-GST antibody and the tracer. When running the assay, Fluormone™ ES2 Green tracer was added to ligand test compounds or solvent controls followed by addition of a mixture of the ER Alpha-LBD (GST) and terbium anti-GST antibody. After an incubation period at room temperature, the TR-FRET ratio of 520:495 emissions were calculated and used to determine the IC50 from a dose response curve of the compound. ER and PR functional assays: COS cells are transfected with 25 ng rat progesterone receptor (PR) and 250 ng GRE-LUC or 50 ng human estrogen receptor a (ER) and 250 ng ERE-LUC. Cells are also transfected with 10 ng CMV-renilla LUC in OptiMEM medium using lipofectamine transfection reagent. Twenty-four hours after transfection medium is changed to DME+5% csFBS w/o and treated with compounds in the presence of 0.1 nM progesterone for PR and estradiol for ER. Twenty four hours after treatment, cells are harvested and luciferase assay is performed using dual luciferase assay kit. The firefly values are normalized to renilla luciferase values and represented as a ratio. i. Evaluation of test compound in mouse xenograft model: To examine the in vivo antitumor activity of test compound, tumor growth experiments are performed in a cell line xenograft model. Male NOD SCID Gamma (NSG) mice are housed as five animals per cage and are allowed free access to water and commercial rodent chow. 22RV1 cells (grown in RPMI+10% FBS) mixed with 50% matrigel basement membrane are implanted subcutaneously in castrated mice. Alternatively, an antiandrogen resistant cell line other than 22RV1, such as MR49F or VCaP, is used. Once the tumors reach 200-500 mm^3, the animals are randomized and treated intraperitoneally with vehicle (DMSO:PEG-300:corn oil 10:30:60 ratio) or test compound. […]

[4] = tested on: 22RV1 cells; assay: Cell proliferation assay, CellTiter Glo; format: cell-based; conditions: Homo sapiens, 22Rv1, 72 h; cell growth inhibition, three days of treatment
Method: (§1) a. […] IC50s were determined using 8 concentrations/compound. […] Ki=IC50/(1+[L]/Kd) c.
(§2) Cells were plated at varying density in the respective growth medium in 96 well plates. 24 hr later, cells were treated, in triplicate or quadruplicate, with test articles prepared in a range of concentrations by series dilution of DMSO stock solutions in growth medium and incubated for three to seven days. The number of viable 22RV1 and HT-29 cells was measured using CellTiter Glo assay (CTG, Promega, Madison, WI) after three days of treatment. Cell viability data were plotted using GraphPad Prism (GraphPad Software, Inc., San Diego, CA). In addition, a nonlinear regression model with a sigmoidal dose response and variable slope within GraphPad Prism was used to calculate the IC50 value of individual test articles.

[5] = tested on: HT-29 cells; assay: Cell proliferation assay, CellTiter Glo; format: cell-based; conditions: Homo sapiens, HT-29, 72 h; cell growth inhibition, three days of treatment
Method: as §1, §2

[6] = molecular target: AR in LNCaP cytosol (Homo sapiens (Human), UniProt P10275, T878A); assay: AR binding assay (3H-methyltrienolone displacement); conditions: read-out: AR IC50, 4° C. for 24 hours
AR in LNCaP cytosol, sequence (P10275 whole entry T878A): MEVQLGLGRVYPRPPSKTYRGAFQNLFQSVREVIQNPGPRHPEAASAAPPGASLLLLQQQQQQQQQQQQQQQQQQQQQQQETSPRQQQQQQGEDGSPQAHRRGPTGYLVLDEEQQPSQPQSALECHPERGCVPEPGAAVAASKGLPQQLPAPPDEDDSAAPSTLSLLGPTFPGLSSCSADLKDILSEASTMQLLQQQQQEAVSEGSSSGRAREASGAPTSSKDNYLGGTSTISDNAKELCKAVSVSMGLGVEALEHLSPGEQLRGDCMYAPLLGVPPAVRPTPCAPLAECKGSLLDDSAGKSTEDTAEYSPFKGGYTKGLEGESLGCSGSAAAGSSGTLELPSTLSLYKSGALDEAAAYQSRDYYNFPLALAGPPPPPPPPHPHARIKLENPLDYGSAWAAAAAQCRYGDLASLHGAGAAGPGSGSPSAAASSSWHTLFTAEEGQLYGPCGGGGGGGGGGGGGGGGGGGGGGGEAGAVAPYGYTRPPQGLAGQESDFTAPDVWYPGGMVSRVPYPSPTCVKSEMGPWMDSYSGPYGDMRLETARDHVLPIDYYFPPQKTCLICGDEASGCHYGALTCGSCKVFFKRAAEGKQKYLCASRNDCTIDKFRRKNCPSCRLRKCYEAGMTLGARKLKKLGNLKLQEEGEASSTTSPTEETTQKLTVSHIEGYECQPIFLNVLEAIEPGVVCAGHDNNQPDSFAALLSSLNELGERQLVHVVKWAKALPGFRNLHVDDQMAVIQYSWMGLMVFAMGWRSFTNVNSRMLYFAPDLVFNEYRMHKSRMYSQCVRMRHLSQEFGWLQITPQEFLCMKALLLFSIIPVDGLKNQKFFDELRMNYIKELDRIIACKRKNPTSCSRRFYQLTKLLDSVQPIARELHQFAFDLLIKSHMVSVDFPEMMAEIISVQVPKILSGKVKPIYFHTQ
Method: as §3

Human recombinant PARP2, sequence (Q9UGN5 whole entry): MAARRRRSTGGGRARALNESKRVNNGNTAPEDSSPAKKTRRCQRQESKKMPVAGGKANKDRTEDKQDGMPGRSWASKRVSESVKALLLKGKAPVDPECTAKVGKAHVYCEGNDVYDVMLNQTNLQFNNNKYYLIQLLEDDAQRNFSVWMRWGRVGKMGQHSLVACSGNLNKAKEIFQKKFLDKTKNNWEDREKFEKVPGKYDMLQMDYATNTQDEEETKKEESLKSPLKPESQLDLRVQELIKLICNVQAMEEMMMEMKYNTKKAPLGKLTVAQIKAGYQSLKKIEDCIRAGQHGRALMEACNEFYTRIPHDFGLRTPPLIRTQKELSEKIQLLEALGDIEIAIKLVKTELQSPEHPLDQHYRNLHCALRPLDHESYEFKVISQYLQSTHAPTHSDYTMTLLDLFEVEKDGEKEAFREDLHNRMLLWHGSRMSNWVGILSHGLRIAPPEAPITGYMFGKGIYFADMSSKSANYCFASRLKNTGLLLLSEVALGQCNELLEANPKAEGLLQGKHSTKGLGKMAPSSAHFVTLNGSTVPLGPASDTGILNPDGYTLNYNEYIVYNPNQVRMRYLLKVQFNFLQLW
ER Alpha-LBD (GST), sequence (P03372 311-547): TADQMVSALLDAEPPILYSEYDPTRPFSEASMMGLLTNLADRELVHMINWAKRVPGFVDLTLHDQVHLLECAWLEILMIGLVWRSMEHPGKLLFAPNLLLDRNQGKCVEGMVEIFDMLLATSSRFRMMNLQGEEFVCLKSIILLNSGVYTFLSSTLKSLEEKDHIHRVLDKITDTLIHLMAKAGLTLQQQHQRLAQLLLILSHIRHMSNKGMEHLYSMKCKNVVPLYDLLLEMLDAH
Human recombinant PARP1, sequence (P09874 whole entry, the tested form may be a part): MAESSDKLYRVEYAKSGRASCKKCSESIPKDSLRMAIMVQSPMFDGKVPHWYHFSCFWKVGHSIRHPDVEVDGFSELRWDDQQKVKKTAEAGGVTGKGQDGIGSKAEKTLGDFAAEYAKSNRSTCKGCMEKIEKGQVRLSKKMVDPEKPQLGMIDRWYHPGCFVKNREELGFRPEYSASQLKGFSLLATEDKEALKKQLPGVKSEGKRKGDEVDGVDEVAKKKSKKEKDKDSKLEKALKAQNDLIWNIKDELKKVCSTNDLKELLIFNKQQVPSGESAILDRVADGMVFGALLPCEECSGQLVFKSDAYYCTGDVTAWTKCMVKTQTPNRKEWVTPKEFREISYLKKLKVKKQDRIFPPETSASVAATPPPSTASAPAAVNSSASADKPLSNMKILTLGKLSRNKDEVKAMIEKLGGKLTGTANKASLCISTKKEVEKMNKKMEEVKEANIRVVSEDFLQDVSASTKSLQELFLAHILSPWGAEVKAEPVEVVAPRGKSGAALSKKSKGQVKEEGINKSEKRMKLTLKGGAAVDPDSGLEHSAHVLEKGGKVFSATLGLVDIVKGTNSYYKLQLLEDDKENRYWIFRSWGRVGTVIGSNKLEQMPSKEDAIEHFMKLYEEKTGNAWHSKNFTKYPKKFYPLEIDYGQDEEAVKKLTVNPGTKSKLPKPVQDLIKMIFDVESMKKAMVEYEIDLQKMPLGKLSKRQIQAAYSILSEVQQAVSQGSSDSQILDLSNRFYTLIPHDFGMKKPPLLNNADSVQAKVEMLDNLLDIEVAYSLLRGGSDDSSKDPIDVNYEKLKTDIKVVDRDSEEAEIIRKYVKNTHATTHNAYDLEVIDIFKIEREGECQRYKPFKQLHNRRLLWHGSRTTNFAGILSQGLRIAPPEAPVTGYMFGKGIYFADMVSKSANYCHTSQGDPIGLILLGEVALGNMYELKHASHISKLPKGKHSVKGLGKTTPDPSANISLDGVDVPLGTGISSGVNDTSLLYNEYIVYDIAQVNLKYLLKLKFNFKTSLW

Structure (SMILES) | IC50 [1] [nM] | IC50 [2] [nM] | IC50 [3] [nM] | IC50 [4] [nM] | IC50 [5] [nM] | IC50 [6] [nM] | Ki ([3]; read-out: ERα Ki) [nM]
CC/C(=C(/c1ccc(OCCCCCCN2CCN(C(=O)c3cc(Cc4n[nH]c(=O)c5ccccc45)ccc3F)CC2)cc1)c1ccc2[nH]ncc2c1)c1ccc(Cl)cc1F [Compound 2.52, (E)-4-(3-(4-(6-(4-(2-(4-chloro-2-fluorophenyl)-1-(1H-indazol-5-yl)but-1-enyl)phenoxy)hexyl)piperazine-1-carbonyl)-4-fluorobenzyl)phthalazin-1(2H)-one] | 29 | 187 | 5.3 |  |  |  | 
Cn1ncnc1[C@H]1c2n[nH]c(=O)c3cc(F)cc(c23)N[C@@H]1c1ccc(OC[C@](C)(O)C(=O)Nc2ccc(C#N)c(C(F)(F)F)c2)cc1 [Compound 1.1a, (S)—N-(4-cyano-3-(trifluoromethyl)phenyl)-3-(4-((8S,9R)-5-fluoro-9-(1-methyl-1H-1,2,4-triazol-5-yl)-3-oxo-3,7,8,9-tetrahydro-2H-pyrido[4,3,2-de]phthalazin-8-yl)phenoxy)-2-hydroxy-2-methylpropanamide] | > 1000 | > 1000 |  | > 10000 | > 10000 |  | 
C[C@@H]1Cc2c([nH]c3ccccc23)[C@@H](c2c(F)cc(OCCCCCC(=O)N3CCN(C(=O)c4cc(Cc5n[nH]c(=O)c6ccccc56)ccc4F)CC3)cc2F)N1CC(C)(C)F [Compound 2.50, 4-(3-(4-(6-(3,5-difluoro-4-((1R,3R)-2-(2-fluoro-2-methylpropyl)-3-methyl-2,3,4,9-tetrahydro-1H-pyrido[3,4-b]indol-1-yl)phenoxy)hexanoyl)piperazine-1-carbonyl)-4-fluorobenzyl)phthalazin-1(2H)-one] | 3 | 21 | 5.7 |  |  |  | 
Cn1ncnc1[C@H]1c2n[nH]c(=O)c3cc(F)cc(c23)N[C@@H]1c1ccc(N2C(=S)N(c3ccc(C#N)c(C(F)(F)F)c3)C(=O)C2(C)C)cc1 [Compound 1.2a, 4-(3-(4-((8S,9R)-5-fluoro-9-(1-methyl-1H-1,2,4-triazol-5-yl)-3-oxo-3,7,8,9-tetrahydro-2H-pyrido[4,3,2-de]phthalazin-8-yl)phenyl)-4,4-dimethyl-5-oxo-2-thioxoimidazolidin-1-yl)-2-(trifluoromethyl)benzonitrile] | 0.3 |  |  | > 10000 | > 10000 | > 3750 | 
CC/C(=C(/c1ccc(OCCCOCC(=O)N2CCN(C(=O)c3cc(Cc4n[nH]c(=O)c5ccccc45)ccc3F)CC2)cc1)c1ccc2[nH]ncc2c1)c1ccc(Cl)cc1F [Compound 2.53, (E)-4-(3-(4-(2-(3-(4-(2-(4-chloro-2-fluorophenyl)-1-(1H-indazol-5-yl)but-1-enyl)phenoxy)propoxy)acetyl)piperazine-1-carbonyl)-4-fluorobenzyl)phthalazin-1(2H)-one] | 6 | 95 | 3.4 |  |  |  | 
CC/C(=C(/c1ccc(OCCCOCCN2CCN(C(=O)c3cc(Cc4n[nH]c(=O)c5ccccc45)ccc3F)CC2)cc1)c1ccc2[nH]ncc2c1)c1ccc(Cl)cc1F [Compound 2.54, (E)-4-(3-(4-(2-(3-(4-(2-(4-chloro-2-fluorophenyl)-1-(1H-indazol-5-yl)but-1-enyl)phenoxy)propoxy)ethyl)piperazine-1-carbonyl)-4-fluorobenzyl)phthalazin-1(2H)-one] | 5 | 40 | 64.1 |  |  |  | 34.5
CC/C(=C(/c1ccc(OCCCCCC(=O)N2CCN(C(=O)c3cc(Cc4n[nH]c(=O)c5ccccc45)ccc3F)CC2)cc1)c1ccc2[nH]ncc2c1)c1ccc(Cl)cc1F [Compound 2.49, (E)-4-(3-(4-(6-(4-(2-(4-chloro-2-fluorophenyl)-1-(1H-indazol-5-yl)but-1-en-1-yl)phenoxy)hexanoyl)piperazine-1-carbonyl)-4-fluorobenzyl)phthalazin-1(2H)-one] | 9 | 204 | 4.4 |  |  |  | 
Cn1ncnc1[C@@H]1c2n[nH]c(=O)c3cc(F)cc(c23)N[C@H]1c1ccc(OC[C@](C)(O)C(=O)Nc2ccc(C#N)c(C(F)(F)F)c2)cc1 [Compound 1.1b, (S)—N-(4-cyano-3-(trifluoromethyl)phenyl)-3-(4-((8R,9S)-5-fluoro-9-(1-methyl-1H-1,2,4-triazol-5-yl)-3-oxo-3,7,8,9-tetrahydro-2H-pyrido[4,3,2-de]phthalazin-8-yl)phenoxy)-2-hydroxy-2-methylpropanamide] | 30 | 60 |  | > 10000 | > 10000 |  | 
CC1(C)C(=O)N(c2ccc(C#N)c(C(F)(F)F)c2)C(=S)N1C1CCN(C(=O)c2cc(Cc3n[nH]c(=O)c4ccccc34)ccc2F)CC1 [Compound 1.3, 4-(3-(1-(2-fluoro-5-((4-oxo-3,4-dihydrophthalazin-1-yl)methyl)benzoyl)piperidin-4-yl)-4,4-dimethyl-5-oxo-2-thioxoimidazolidin-1-yl)-2-(trifluoromethyl)benzonitrile] | 0.6 | 3 |  |  |  |  | 
C[C@H]1Cc2c([nH]c3ccccc23)[C@H](c2c(F)cc(OCCN3CCN(C(=O)c4cc(Cc5n[nH]c(=O)c6ccccc56)ccc4F)CC3)cc2F)N1CC(C)(C)F (stereo in doubt) [Compound 2.51, 4-(3-(4-(2-(3,5-difluoro-4-((1S,3S)-2-(2-fluoro-2-methylpropyl)-3-methyl-2,3,4,9-tetrahydro-1H-pyrido[3,4-b]indol-1-yl)phenoxy)ethyl)piperazine-1-carbonyl)-4-fluorobenzyl)phthalazin-1(2H)-one] | 4 | 28 | 44 |  |  |  | 
Cn1ncnc1[C@@H]1c2n[nH]c(=O)c3cc(F)cc(c23)N[C@H]1c1ccc(N2C(=S)N(c3ccc(C#N)c(C(F)(F)F)c3)C(=O)C2(C)C)cc1 [Compound 1.2b, 4-(3-(4-((8R,9S)-5-fluoro-9-(1-methyl-1H-1,2,4-triazol-5-yl)-3-oxo-3,7,8,9-tetrahydro-2H-pyrido[4,3,2-de]phthalazin-8-yl)phenyl)-4,4-dimethyl-5-oxo-2-thioxoimidazolidin-1-yl)-2-(trifluoromethyl)benzonitrile] | 20 |  |  | > 10000 | > 10000 |  | 
